This passage reports inhibition, melting point and IC50 results from patent US9029389B2 (Institut Pasteur Korea, priority 2011, dated 2015).

For data set [1], the target named is T1, Human 5-lipoxygenase (Homo sapiens, UniProt P09917).
T1 construct: purchased Cayman 60402; host or cells: insect cells
T1 sequence (P09917 1-674): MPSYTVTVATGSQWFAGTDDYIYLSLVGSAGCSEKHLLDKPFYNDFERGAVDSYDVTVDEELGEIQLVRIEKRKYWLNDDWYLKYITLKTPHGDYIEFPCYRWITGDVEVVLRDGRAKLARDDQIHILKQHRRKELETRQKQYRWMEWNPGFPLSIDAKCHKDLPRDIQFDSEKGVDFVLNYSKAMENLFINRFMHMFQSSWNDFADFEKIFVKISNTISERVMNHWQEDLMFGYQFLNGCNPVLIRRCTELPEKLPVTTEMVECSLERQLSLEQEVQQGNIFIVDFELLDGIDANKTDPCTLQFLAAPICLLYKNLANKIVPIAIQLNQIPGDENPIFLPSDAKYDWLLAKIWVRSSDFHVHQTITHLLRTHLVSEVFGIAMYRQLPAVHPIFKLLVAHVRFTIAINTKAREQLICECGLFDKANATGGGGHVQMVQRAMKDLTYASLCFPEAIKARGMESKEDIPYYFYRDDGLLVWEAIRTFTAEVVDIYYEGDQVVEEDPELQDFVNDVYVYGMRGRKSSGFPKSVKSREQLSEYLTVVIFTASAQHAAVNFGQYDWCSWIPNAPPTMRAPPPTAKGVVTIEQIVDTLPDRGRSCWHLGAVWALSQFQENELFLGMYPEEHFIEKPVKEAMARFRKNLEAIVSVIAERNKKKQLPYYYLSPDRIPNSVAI
The data set can be described thus: Activity of compounds against 5-LO enzyme (LTB4 measurement and/or fluorescence method). Type of data set: biochemical. The following applies: for inhibition at 10 µM: 5-LO, single concentration of 10 uM in duplicate; for IC50: 6 or 11 point dose response in duplicate. Summed up:
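Two read-outs: LTB4 measured by EIA and/or LC/MS/MS with LTB4-d4 standard after 15 min RT compound preincubation with insect-cell 5-LO and a 5 min 37 °C reaction on 3 uM arachidonic acid (0.1 mM ATP, pH 7.4). The room-temperature fluorescence format used 20 uM H2DCFDA, 100 uM ATP, 3 uM arachidonic acid, 5 min; IC50 from 6/11-point curves.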

Where only a bound is given, the exact number is not on record here.

What is called inhibition is the change of the read-out against control, counted positive when it falls. As usually defined, the melting point is the temperature of the solid-liquid transition. With `CCc1nc2ccc(Cl)cn2c1C(=O)NCc1ccc(N2CCC(F)(F)CC2)cc1` [compound 235, 6-chloro-N-(4-(4,4-difluoropiperidin-1-yl)benzyl)-2-ethylimidazo[1,2-a]pyridine-3-carboxamide], the melting point turned out to be 194.2 °C. Moreover, the inhibition at 10 µM in data set [1] is < 40%.

`CCc1nc2cc(Cl)ccn2c1C(=O)NCc1ccc(N2CCC(F)(F)CC2)cc1` [compound 236, 7-Chloro-N-(4-(4,4-difluoropiperidin-1-yl)benzyl)-2-ethylimidazo[1,2-a]pyridine-3-carboxamide]: the melting point came out at 166.3 °C. For the same compound, the inhibition at 10 µM in data set [1] is 40 to 69%.

`CCc1nc2ccc(Cl)cn2c1C(=O)NCc1ccc(N2CCN3CCCC3C2)cc1` (stereo not drawn) [compound 237, 6-Chloro-2-ethyl-N-(4-(hexahydropyrrolo[1,2-a]pyrazin-2(1H)-yl)benzyl)imidazo[1,2-a]pyridine-3-carboxamide]: the melting point was 163 °C. Besides, the inhibition at 10 µM in data set [1] was < 40%.

Compound `CCNC(=O)c1c(CC)nc2ccc(Cl)cn12` [compound 238, 6-Chloro-N,2-diethylimidazo[1,2-a]pyridine-3-carboxamide] displayed a melting point of 176.7 °C. The inhibition at 10 µM in data set [1] was < 40%.

In the case of `CCc1nc2ccc(Cl)cn2c1C(=O)NCC(C)C` [compound 239, 6-Chloro-2-ethyl-N-isobutylimidazo[1,2-a]pyridine-3-carboxamide], the melting point was 162.2 °C. Further, the inhibition at 10 µM in data set [1] was < 40%.

Turning to `CCc1nc2ccc(Br)cn2c1C(=O)NCc1ccc(N2CCOCC2)cc1` [compound 240, 6-Bromo-2-ethyl-N-(4-morpholinobenzyl)imidazo[1,2-a]pyridine-3-carboxamide], the melting point stood at 228.2 °C. For the same compound, in data set [1], the inhibition at 10 µM is < 40%.

With `CCc1nc2c(F)cccn2c1C(=O)NCc1ccc(N2CCOCC2)cc1` [compound 242, 2-Ethyl-8-fluoro-N-(4-morpholinobenzyl)imidazo[1,2-a]pyridine-3-carboxamide], the melting point is 197.3 °C. In addition, the inhibition at 10 µM in data set [1] was < 40%.

In general, IC50 refers to the concentration that inhibits the measured activity by half. A high value points to a need for much substance. `CCc1nc2ccccn2c1C(=O)NCc1ccc(N2CCC(COc3ccc(F)cc3)CC2)cc1` [compound 243, 2-Ethyl-N-(4-(4-((4-fluorophenoxy)methyl)piperidin-1-yl)benzyl)imidazo[1,2-a]pyridine-3-carboxamide] showed a melting point of 144.2 °C. Besides, in data set [1], the inhibition at 10 µM was > 69% and the 50% inhibitory concentration (IC50) was < 1 µM.

`CCc1nc2ccc(Cl)cn2c1C(=O)NCc1ccc(N2CCC(COc3ccc(F)cc3)CC2)cc1` [compound 244, 6-Chloro-2-ethyl-N-(4-(4-((4-fluorophenoxy)methyl)piperidin-1-yl)benzyl)imidazo[1,2-a]pyridine-3-carboxamide] gave a melting point of 171 °C. The inhibition at 10 µM in data set [1] was 40 to 69%.

Take `CCc1nc2cc(Cl)ccn2c1C(=O)NCc1ccc(N2CCC(COc3ccc(F)cc3)CC2)cc1` [compound 245, 7-Chloro-2-ethyl-N-(4-(4-((4-fluorophenoxy)methyl)piperidin-1-yl)benzyl)imidazo[1,2-a]pyridine-3-carboxamide]: the melting point worked out at 186.5 °C. Further, in data set [1], the inhibition at 10 µM was < 40%.

`CCc1nc2cc(N3CCN(c4ccccc4)CC3)ccn2c1C(=O)NCc1ccc(C(F)(F)F)cc1` [compound 246, 2-Ethyl-7-(4-phenylpiperazin-1-yl)-N-(4-(trifluoromethyl)benzyl)imidazo[1,2-a]pyridine-3-carboxamide]: the melting point came to 235.2 °C. Further, in data set [1], the inhibition at 10 µM was < 40%.

With `CCc1nc2ccc(Cl)cn2c1C(=O)NCc1ccc(N2CCC(COC)CC2)cc1` [compound 247, 6-Chloro-2-ethyl-N-(4-(4-(methoxymethyl)piperidin-1-yl)benzyl)imidazo[1,2-a]pyridine-3-carboxamide], the melting point is 162.1 °C. In data set [1], this compound displayed an inhibition at 10 µM of 40 to 69%.

In the case of `CCc1nc2cc(Cl)ccn2c1C(=O)NCc1ccc(N2CCC(COC)CC2)cc1` [compound 248, 7-Chloro-2-ethyl-N-(4-(4-(methoxymethyl)piperidin-1-yl)benzyl)imidazo[1,2-a]pyridine-3-carboxamide], the melting point is 172.5 °C. For the same compound, in data set [1], the inhibition at 10 µM is < 40%.

Compound `CCc1nc2ccc(Cl)cn2c1C(=O)NCc1ccc(N2CCC(c3ccc(F)cc3)CC2)cc1` [compound 249, 6-Chloro-2-ethyl-N-(4-(4-(4-fluorophenyl)piperidin-1-yl)benzyl)imidazo[1,2-a]pyridine-3-carboxamide] yielded a melting point of 164 °C. In data set [1], this compound gave an inhibition at 10 µM of 40 to 69%.

`CCc1nc2cc(Cl)ccn2c1C(=O)NCc1ccc(N2CCC(c3ccc(F)cc3)CC2)cc1` [compound 250, 7-Chloro-2-ethyl-N-(4-(4-(4-fluorophenyl)piperidin-1-yl)benzyl)imidazo[1,2-a]pyridine-3-carboxamide] had a melting point of 182.7 °C. Moreover, the inhibition at 10 µM in data set [1] was 40 to 69%.

In turn, `CCc1nc2cc(Cl)ccn2c1C(=O)NCc1ccc(N2CCCCC2C)cc1` (stereo not drawn) [compound 252, 7-chloro-2-ethyl-N-(4-(2-methylpiperidin-1-yl)benzyl)imidazo[1,2-a]pyridine-3-carboxamide] returned a melting point of 117.9 °C. The inhibition at 10 µM in data set [1] is < 40%.

With `CCc1nc2cc(Br)ccn2c1C(=O)NCc1ccc(N2CCOCC2)cc1` [compound 253, 7-Bromo-2-ethyl-N-(4-morpholinobenzyl)imidazo[1,2-a]pyridine-3-carboxamide], the melting point is 202.6 °C. Further, the inhibition at 10 µM in data set [1] is < 40%.

`CCc1nc2cc(N3CCN(C)CC3)ccn2c1C(=O)NCc1ccc(N2CCOCC2)cc1` [compound 254, 2-Ethyl-7-(4-methylpiperazin-1-yl)-N-(4-morpholinobenzyl)imidazo[1,2-a]pyridine-3-carboxamide] displayed a melting point of 204.8 °C. Moreover, the inhibition at 10 µM in data set [1] was < 40%.

Compound `CCc1nc2cc(-c3ccncc3)ccn2c1C(=O)NCc1ccc(N2CCOCC2)cc1` [compound 255, 2-Ethyl-N-(4-morpholinobenzyl)-7-(pyridin-4-yl)imidazo[1,2-a]pyridine-3-carboxamide] showed a melting point of 210.1 °C. For the same compound, in data set [1], the inhibition at 10 µM is < 40%.

With `CCc1nc2cc(N3CCN(Cc4ccc(F)cc4)CC3)ccn2c1C(=O)NCc1ccc(N2CCOCC2)cc1` [compound 257, 2-Ethyl-7-(4-(4-fluorobenzyl)piperazin-1-yl)-N-(4-morpholinobenzyl)imidazo[1,2-a]pyridine-3-carboxamide], the melting point was 212.5 °C. For the same compound, the inhibition at 10 µM in data set [1] was 40 to 69%.

`CCc1nc2ccccn2c1C(=O)NCc1ccc(N2CCC(c3ccc(OC(F)(F)F)cc3)CC2)cc1` [compound 266, 2-Ethyl-N-(4-(4-(4-(trifluoromethoxy)phenyl)piperidin-1-yl)benzyl)imidazo[1,2-a]pyridine-3-carboxamide]: the melting point came to 146 °C. Besides, in data set [1], the inhibition at 10 µM was > 69% and the concentration for half-maximal inhibition (IC50) was < 1 µM.

`CCc1nc2ccc(OC)cn2c1C(=O)NCc1ccc(N2CCN(c3ccc(F)cc3)CC2)cc1` [compound 271, 2-Ethyl-N-(4-(4-(4-fluorophenyl)piperazin-1-yl)benzyl)-6-methoxyimidazo[1,2-a]pyridine-3-carboxamide]: the melting point is 173.8 °C. This compound returned an inhibition at 10 µM in data set [1] of 40 to 69%.

With `CCc1nc2ccc(C(F)(F)F)cn2c1C(=O)NCc1ccc(N2CCOCC2)cc1` [compound 273, 2-Ethyl-N-(4-morpholinobenzyl)-6-(trifluoromethyl)imidazo[1,2-a]pyridine-3-carboxamide], the melting point is 207.6 °C. Further, in data set [1], the inhibition at 10 µM was < 40%.

Regarding `CCc1nc2c(C(F)(F)F)cccn2c1C(=O)NCc1ccc(N2CCOCC2)cc1` [compound 274, 2-Ethyl-N-(4-morpholinobenzyl)-8-(trifluoromethyl)imidazo[1,2-a]pyridine-3-carboxamide], the melting point was determined as 200.6 °C. In addition, the inhibition at 10 µM in data set [1] is < 40%.

For `CCc1nc2c(OC(F)F)cccn2c1C(=O)NCc1ccc(N2CCN(c3ccc(F)cc3)CC2)cc1` [compound 278, 8-(Difluoromethoxy)-2-ethyl-N-(4-(4-(4-fluorophenyl)piperazin-1-yl)benzyl)imidazo[1,2-a]pyridine-3-carboxamide], the melting point worked out at 186.3 °C. The compound further yielded an inhibition at 10 µM in data set [1] of 40 to 69%.

As to `CCc1nc2c(OC(F)F)cccn2c1C(=O)NCc1ccc(N2CCOCC2)cc1` [compound 279, 8-(Difluoromethoxy)-2-ethyl-N-(4-morpholinobenzyl)imidazo[1,2-a]pyridine-3-carboxamide], the melting point came out at 163 °C. In addition, the inhibition at 10 µM in data set [1] was < 40%.
